Assay results published in ChEMBL document CHEMBL1649320, “Development of daptomycin nonsusceptibility with heterogeneous vancomycin-intermediate resistance and oxacillin susceptibility in methicillin-resistant Staphylococcus aureus during high-dose daptomycin treatment” (2010).
Converted amounts (≈) assume the structure as drawn.

Key:
Type in all cases: functional
Staphylococcus aureus [1] = assay: Antimicrobial activity against methicillin-resistant Staphylococcus aureus CGK6 by Etest method
Staphylococcus aureus [2] = assay: Antimicrobial activity against methicillin-resistant Staphylococcus aureus CGK1 by Etest method
Staphylococcus aureus [3] = assay: Antimicrobial activity against methicillin-resistant Staphylococcus aureus CGK8 by Etest method
Staphylococcus aureus [4] = assay: Antimicrobial activity against methicillin-resistant Staphylococcus aureus CGK5 by Etest method
Staphylococcus aureus [5] = assay: Antimicrobial activity against methicillin-resistant Staphylococcus aureus CGK2 by Etest method
Staphylococcus aureus [6] = assay: Antimicrobial activity against methicillin-resistant Staphylococcus aureus CGK7 by Etest method
Staphylococcus aureus [7] = assay: Antimicrobial activity against methicillin-resistant Staphylococcus aureus CGK3 by Etest method
Staphylococcus aureus [8] = assay: Antimicrobial activity against methicillin-resistant Staphylococcus aureus CGK4 by Etest method

Structure (SMILES)	MIC (Staphylococcus aureus [1]) [µg/mL]	MIC (Staphylococcus aureus [2]) [µg/mL]	MIC (Staphylococcus aureus [3]) [µg/mL]	MIC (Staphylococcus aureus [4]) [µg/mL]	MIC (Staphylococcus aureus [5]) [µg/mL]	MIC (Staphylococcus aureus [6]) [µg/mL]	MIC (Staphylococcus aureus [7]) [µg/mL]	MIC (Staphylococcus aureus [8]) [µg/mL]
CCCCCCCCCC(=O)N[C@@H](Cc1c[nH]c2ccccc12)C(=O)N[C@H](CC(N)=O)C(=O)N[C@@H](CC(=O)O)C(=O)N[C@@H]1C(=O)NCC(=O)N[C@@H](CCCN)C(=O)N[C@@H](CC(=O)O)C(=O)N[C@H](C)C(=O)N[C@@H](CC(=O)O)C(=O)NCC(=O)N[C@H](CO)C(=O)N[C@@H]([C@H](C)CC(=O)O)C(=O)N[C@@H](CC(=O)c2ccccc2N)C(=O)O[C@@H]1C	4 (≈ 2.47 µM)	0.5 (≈ 0.309 µM)	4 (≈ 2.47 µM)	0.75 (≈ 0.463 µM)	0.75 (≈ 0.463 µM)	4 (≈ 2.47 µM)	0.75 (≈ 0.463 µM)	0.38 (≈ 0.234 µM)
CN[C@H](CC(C)C)C(=O)N[C@H]1C(=O)N[C@@H](CC(N)=O)C(=O)N[C@H]2C(=O)N[C@H]3C(=O)N[C@H](C(=O)N[C@H](C(=O)O)c4cc(O)cc(O)c4-c4cc3ccc4O)[C@H](O)c3ccc(c(Cl)c3)Oc3cc2cc(c3O[C@@H]2O[C@H](CO)[C@@H](O)[C@H](O)[C@H]2O[C@H]2C[C@](C)(N)[C@H](O)[C@H](C)O2)Oc2ccc(cc2Cl)[C@H]1O [VANCOMYCIN]	–	1.5 (≈ 1.04 µM)	–	–	1.5 (≈ 1.04 µM)	3 (≈ 2.07 µM)	–	1.5 (≈ 1.04 µM)
CC(=O)NC[C@H]1CN(c2ccc(N3CCOCC3)c(F)c2)C(=O)O1 [LINEZOLID]	1 (≈ 2.96 µM)	–	1.5 (≈ 4.45 µM)	–	–	–	–	–
CC(=O)N[C@@H]1[C@H](Oc2c3cc4cc2Oc2ccc(cc2Cl)[C@@H](O[C@@H]2O[C@@H](CO)[C@@H](O)[C@H](O)[C@@H]2NC(C)=O)[C@@H]2NC(=O)[C@H](NC(=O)[C@@H]4NC(=O)[C@H]4NC(=O)[C@@H](Cc5ccc(c(Cl)c5)O3)NC(=O)[C@H](N)c3ccc(O)c(c3)Oc3cc(O)cc4c3)c3ccc(O)c(c3)-c3c(O[C@H]4O[C@H](CO)[C@@H](O)[C@@H](O)[C@@H]4O)cc(O)cc3[C@@H](C(=O)O)NC2=O)O[C@@H](CO)[C@@H](O)[C@@H]1O	2 (≈ 1.13 µM)	1 (≈ 0.566 µM)	2 (≈ 1.13 µM)	2 (≈ 1.13 µM)	1.5 (≈ 0.849 µM)	3 (≈ 1.7 µM)	1.5 (≈ 0.849 µM)	1 (≈ 0.566 µM)
Cc1onc(-c2ccccc2)c1C(=O)N[C@@H]1C(=O)N2[C@@H]1SC(C)(C)[C@@H]2C(=O)O [OXACILLIN]	1.5 (≈ 3.74 µM)	32 (≈ 79.7 µM)	1 (≈ 2.49 µM)	> 256	> 256	3 (≈ 7.47 µM)	> 256	16 (≈ 39.9 µM)
